Assay results taken from patent US8673347B2 (Creabilis Therapeutics S.p.A., priority 2005, dated 2014).

Columns and labels:
[1] = target: AurA (Homo sapiens, UniProt O14965); assay: Kinase inhibition profile; assay type: biochemical; conditions: 200 nM; read-out: inhibitory activity
Description: (§1) The preparation of CT327 and the reference compounds was conducted following a similar procedure. CT327 also was tested at a concentration of 200 nM.
(§2) The inhibitory activity of CT327 against the tested tyrosine kinase and serine/threonine kinases is shown in the Table a and b, respectively, reported in FIG. 9b.

[2] = target: BLK (Homo sapiens, UniProt P51451); assay: Kinase inhibition profile; assay type: biochemical; conditions: 200 nM; read-out: inhibitory activity
Description: as §1, §2

[3] = target: CHK1 (Homo sapiens, UniProt O14757); assay: Kinase inhibition profile; assay type: biochemical; conditions: 200 nM; read-out: inhibitory activity
Description: as §1, §2

[4] = target: CHK2 (Homo sapiens, UniProt O96017); assay: Kinase inhibition profile; assay type: biochemical; conditions: 200 nM; read-out: inhibitory activity
Description: as §1, §2

[5] = target: CaMK2a (Homo sapiens, UniProt Q9UQM7); assay: Kinase inhibition profile; assay type: biochemical; conditions: 200 nM; read-out: inhibitory activity
Description: as §1, §2

[6] = target: FGR (Homo sapiens, UniProt P09769); assay: Kinase inhibition profile; assay type: biochemical; conditions: 200 nM; read-out: inhibitory activity
Description: as §1, §2

[7] = target: FLT3 (Homo sapiens, UniProt P36888); assay: Kinase inhibition profile; assay type: biochemical; conditions: 200 nM; read-out: inhibitory activity
Description: as §1, §2

[8] = target: JAK1 (Homo sapiens, UniProt P23458); assay: Kinase inhibition profile; assay type: biochemical; conditions: 200 nM; read-out: inhibitory activity
Description: as §1, §2

[9] = target: JAK2 (Homo sapiens, UniProt O60674); assay: Kinase inhibition profile; assay type: biochemical; conditions: 200 nM; read-out: inhibitory activity
Description: as §1, §2

[10] = target: JAK3 (Homo sapiens, UniProt P52333); assay: Kinase inhibition profile; assay type: biochemical; conditions: 200 nM; read-out: inhibitory activity
Description: as §1, §2

[11] = target: JNK1 (Homo sapiens, UniProt P45983); assay: Kinase inhibition profile; assay type: biochemical; conditions: 200 nM; read-out: inhibitory activity
Description: as §1, §2

[12] = target: JNK2 (Homo sapiens, UniProt P45984); assay: Kinase inhibition profile; assay type: biochemical; conditions: 200 nM; read-out: inhibitory activity
Description: as §1, §2

[13] = target: KIT (Homo sapiens, UniProt P10721); assay: Kinase inhibition profile; assay type: biochemical; conditions: 200 nM; read-out: inhibitory activity
Description: as §1, §2

[14] = target: MER (Homo sapiens, UniProt Q12866); assay: Kinase inhibition profile; assay type: biochemical; conditions: 200 nM; read-out: inhibitory activity
Description: as §1, §2

[15] = target: MET (Homo sapiens, UniProt P08581); assay: Kinase inhibition profile; assay type: biochemical; conditions: 200 nM; read-out: inhibitory activity
Description: as §1, §2

[16] = target: PDGFRα (Homo sapiens, UniProt P16234); assay: Kinase inhibition profile; assay type: biochemical; conditions: 200 nM; read-out: inhibitory activity
Description: as §1, §2

[17] = target: PDGFRβ (Homo sapiens, UniProt P09619); assay: Kinase inhibition profile; assay type: biochemical; conditions: 200 nM; read-out: inhibitory activity
Description: as §1, §2

[18] = target: RET (Homo sapiens, UniProt P07949); assay: Kinase inhibition profile; assay type: biochemical; conditions: 200 nM; read-out: inhibitory activity
Description: as §1, §2

[19] = target: TNK1 (Homo sapiens, UniProt Q13470); assay: Kinase inhibition profile; assay type: biochemical; conditions: 200 nM; read-out: inhibitory activity
Description: as §1, §2

[20] = target: TYK2 (Homo sapiens, UniProt P29597); assay: Kinase inhibition profile; assay type: biochemical; conditions: 200 nM; read-out: inhibitory activity
Description: as §1, §2

[21] = target: TrkB (Homo sapiens, UniProt Q16620); assay: Kinase inhibition profile; assay type: biochemical; conditions: 200 nM; read-out: inhibitory activity
Description: as §1, §2

[22] = target: TrkC (Homo sapiens, UniProt Q16288); assay: Kinase inhibition profile; assay type: biochemical; conditions: 200 nM; read-out: inhibitory activity
Description: as §1, §2

[23] = Acute single dose toxicity study in mice, intraperitoneal route; assay type: in vivo; conditions: for LD50 at 7 days: Balb/c, mouse, in vivo, ip, single dose intraperitoneal
Description: (§3) Observations, which included clinical signs and behavioral changes, were performed every 30 minutes in the first 6 hour following administration, and twice a day during the following 7 days.

[24] = Acute single dose toxicity study in mice, oral administration; conditions: both sexes, Balb/c, mouse, in vivo
Description: as §3
Similar results have been obtained following oral administration.

[25] = tested on: protein kinase C (PKC); conditions: cited from earlier work
[26] = animal model of pancreatic pain; cited from earlier work

CHK1, sequence (O14757 whole entry, species assumed): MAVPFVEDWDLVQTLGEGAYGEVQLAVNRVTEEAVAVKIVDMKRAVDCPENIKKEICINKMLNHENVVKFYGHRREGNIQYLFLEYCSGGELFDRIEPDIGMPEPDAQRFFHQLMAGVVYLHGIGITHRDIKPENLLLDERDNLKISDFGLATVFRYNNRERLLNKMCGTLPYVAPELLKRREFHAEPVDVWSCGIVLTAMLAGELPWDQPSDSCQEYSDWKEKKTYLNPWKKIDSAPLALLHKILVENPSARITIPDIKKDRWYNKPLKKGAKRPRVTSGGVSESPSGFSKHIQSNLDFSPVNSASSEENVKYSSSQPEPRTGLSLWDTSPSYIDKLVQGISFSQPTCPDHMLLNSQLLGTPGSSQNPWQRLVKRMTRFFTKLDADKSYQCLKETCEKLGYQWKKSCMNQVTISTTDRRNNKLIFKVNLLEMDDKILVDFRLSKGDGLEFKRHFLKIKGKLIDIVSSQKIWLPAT
MET, sequence (P08581 25-1390): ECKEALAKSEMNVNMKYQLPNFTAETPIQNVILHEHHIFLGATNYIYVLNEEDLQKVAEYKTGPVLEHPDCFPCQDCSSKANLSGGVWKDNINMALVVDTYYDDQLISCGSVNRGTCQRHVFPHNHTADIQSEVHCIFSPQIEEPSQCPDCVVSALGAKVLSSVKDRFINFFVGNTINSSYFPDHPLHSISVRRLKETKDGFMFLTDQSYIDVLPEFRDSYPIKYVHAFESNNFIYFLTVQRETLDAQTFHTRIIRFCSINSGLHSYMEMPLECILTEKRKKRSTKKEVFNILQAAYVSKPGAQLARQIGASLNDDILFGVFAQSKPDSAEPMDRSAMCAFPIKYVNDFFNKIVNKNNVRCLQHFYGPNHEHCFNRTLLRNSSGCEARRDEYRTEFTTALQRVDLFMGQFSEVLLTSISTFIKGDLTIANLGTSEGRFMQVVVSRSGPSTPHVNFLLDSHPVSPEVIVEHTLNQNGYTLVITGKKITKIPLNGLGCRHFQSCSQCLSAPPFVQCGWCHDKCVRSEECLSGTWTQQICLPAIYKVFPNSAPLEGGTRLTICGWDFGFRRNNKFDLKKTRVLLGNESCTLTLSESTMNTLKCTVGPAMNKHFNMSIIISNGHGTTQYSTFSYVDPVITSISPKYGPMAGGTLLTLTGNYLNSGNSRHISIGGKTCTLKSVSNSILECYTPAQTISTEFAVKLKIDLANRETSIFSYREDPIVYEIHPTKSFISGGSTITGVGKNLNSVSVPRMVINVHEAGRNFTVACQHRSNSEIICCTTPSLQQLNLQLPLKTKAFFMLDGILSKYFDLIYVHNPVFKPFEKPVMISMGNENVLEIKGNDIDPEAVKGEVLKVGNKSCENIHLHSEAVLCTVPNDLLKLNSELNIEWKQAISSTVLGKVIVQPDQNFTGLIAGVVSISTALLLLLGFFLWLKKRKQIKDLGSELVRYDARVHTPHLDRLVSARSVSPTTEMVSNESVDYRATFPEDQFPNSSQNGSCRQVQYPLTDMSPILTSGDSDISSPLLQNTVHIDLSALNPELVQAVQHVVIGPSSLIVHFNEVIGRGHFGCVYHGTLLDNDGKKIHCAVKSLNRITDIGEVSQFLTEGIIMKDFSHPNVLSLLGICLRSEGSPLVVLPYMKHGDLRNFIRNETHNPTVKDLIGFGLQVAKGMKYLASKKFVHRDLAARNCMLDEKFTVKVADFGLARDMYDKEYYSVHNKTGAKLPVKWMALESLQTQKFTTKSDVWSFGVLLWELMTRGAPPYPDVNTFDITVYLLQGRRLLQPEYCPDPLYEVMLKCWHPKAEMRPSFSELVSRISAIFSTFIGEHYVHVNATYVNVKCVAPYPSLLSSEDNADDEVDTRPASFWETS
RET, sequence (P07949 29-1114, species assumed): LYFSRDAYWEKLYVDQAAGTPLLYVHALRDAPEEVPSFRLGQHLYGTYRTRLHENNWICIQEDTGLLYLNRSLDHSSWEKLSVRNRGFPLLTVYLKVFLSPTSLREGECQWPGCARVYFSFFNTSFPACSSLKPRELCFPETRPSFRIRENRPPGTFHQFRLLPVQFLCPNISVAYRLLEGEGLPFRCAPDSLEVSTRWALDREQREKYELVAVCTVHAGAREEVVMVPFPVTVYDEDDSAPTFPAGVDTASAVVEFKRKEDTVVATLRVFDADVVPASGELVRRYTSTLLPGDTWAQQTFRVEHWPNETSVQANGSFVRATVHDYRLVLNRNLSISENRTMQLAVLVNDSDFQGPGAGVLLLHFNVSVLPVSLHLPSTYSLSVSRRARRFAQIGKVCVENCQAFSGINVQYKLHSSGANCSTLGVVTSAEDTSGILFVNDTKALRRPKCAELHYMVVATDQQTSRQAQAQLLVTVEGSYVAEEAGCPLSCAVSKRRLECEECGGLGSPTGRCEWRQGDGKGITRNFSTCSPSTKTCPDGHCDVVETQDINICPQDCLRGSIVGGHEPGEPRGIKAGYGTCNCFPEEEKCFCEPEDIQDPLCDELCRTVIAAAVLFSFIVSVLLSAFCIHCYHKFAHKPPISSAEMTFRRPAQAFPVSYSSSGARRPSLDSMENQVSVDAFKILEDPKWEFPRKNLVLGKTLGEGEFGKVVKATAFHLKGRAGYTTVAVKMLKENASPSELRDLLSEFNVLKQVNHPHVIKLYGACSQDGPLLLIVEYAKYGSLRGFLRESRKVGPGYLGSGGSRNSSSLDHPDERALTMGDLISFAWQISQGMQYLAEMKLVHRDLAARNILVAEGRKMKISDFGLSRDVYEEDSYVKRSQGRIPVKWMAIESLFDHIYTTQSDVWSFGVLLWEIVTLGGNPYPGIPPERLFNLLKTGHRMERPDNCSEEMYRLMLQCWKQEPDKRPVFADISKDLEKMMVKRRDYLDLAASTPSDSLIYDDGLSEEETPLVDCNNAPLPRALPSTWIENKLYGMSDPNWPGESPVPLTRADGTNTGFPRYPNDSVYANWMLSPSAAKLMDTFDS
TrkB, sequence (Q16620 32-822, species assumed): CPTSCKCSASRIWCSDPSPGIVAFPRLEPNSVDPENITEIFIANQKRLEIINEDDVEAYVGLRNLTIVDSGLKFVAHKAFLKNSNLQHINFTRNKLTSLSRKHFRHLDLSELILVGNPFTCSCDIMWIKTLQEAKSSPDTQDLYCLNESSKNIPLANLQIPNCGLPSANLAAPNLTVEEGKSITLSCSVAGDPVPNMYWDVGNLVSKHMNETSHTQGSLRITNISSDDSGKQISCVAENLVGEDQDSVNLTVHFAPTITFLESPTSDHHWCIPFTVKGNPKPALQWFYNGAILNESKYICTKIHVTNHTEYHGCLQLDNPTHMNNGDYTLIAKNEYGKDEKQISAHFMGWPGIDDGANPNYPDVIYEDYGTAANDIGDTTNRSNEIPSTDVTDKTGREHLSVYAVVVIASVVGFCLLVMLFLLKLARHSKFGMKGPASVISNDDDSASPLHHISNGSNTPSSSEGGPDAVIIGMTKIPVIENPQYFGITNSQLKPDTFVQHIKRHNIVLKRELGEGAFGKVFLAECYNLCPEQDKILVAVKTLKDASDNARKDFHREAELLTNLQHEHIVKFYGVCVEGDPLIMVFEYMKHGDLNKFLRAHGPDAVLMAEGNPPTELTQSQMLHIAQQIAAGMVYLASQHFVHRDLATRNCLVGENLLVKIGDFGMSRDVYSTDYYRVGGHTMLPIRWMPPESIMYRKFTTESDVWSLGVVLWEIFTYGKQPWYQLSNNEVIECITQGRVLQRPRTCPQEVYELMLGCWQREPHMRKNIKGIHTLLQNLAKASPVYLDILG
PDGFRα, sequence (P16234 24-1089, species assumed): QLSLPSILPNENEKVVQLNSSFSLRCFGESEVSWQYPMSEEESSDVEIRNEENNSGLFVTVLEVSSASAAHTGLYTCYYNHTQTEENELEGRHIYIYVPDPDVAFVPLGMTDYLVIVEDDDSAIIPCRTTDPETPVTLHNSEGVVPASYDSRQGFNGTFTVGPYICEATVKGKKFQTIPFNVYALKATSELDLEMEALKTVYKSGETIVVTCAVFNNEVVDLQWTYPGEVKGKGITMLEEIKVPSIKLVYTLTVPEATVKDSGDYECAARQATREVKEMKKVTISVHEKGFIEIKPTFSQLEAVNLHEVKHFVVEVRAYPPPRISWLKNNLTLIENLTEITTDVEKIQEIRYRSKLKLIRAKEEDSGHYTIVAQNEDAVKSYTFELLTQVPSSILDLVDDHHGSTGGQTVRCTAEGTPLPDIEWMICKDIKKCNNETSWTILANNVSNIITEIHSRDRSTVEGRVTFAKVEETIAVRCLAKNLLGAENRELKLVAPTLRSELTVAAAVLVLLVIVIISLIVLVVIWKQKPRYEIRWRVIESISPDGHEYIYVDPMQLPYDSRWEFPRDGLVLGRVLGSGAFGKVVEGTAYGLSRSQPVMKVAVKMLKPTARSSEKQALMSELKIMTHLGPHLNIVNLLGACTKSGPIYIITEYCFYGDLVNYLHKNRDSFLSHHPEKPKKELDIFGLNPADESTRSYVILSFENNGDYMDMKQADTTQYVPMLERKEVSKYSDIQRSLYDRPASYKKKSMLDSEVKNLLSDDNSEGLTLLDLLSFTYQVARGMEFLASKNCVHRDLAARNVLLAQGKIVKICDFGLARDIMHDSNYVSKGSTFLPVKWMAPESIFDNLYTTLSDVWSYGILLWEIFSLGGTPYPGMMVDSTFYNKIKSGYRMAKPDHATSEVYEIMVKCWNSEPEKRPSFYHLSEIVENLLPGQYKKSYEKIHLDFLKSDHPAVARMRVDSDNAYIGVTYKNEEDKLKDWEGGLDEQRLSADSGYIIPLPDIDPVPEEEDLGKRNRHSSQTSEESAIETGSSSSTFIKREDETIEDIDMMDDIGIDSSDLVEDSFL

Q: Which results are given for `COC(=O)[C@]1(O)C[C@@H]2O[C@@]1(C)n1c3ccccc3c3c4c(c5c6ccccc6n2c5c31)C(=O)NC4` [Compound K-252a, K-252a]?
A: inhibition at 0.2 µM [1]: > 90%; inhibition at 0.2 µM [2]: 80 to 90%; inhibition at 0.2 µM [3]: > 90%; inhibition at 0.2 µM [4]: > 90%; inhibition at 0.2 µM [5]: 80 to 90%; inhibition at 0.2 µM [6]: 80 to 90%; inhibition at 0.2 µM [7]: > 90%; inhibition at 0.2 µM [8]: 80 to 90%; inhibition at 0.2 µM [9]: > 90%; inhibition at 0.2 µM [10]: > 90%; inhibition at 0.2 µM [11]: > 90%; inhibition at 0.2 µM [12]: > 90%; inhibition at 0.2 µM [13]: 80 to 90%; inhibition at 0.2 µM [14]: 80 to 90%; inhibition at 0.2 µM [15]: 80 to 90%; inhibition at 0.2 µM [16]: > 90%; inhibition at 0.2 µM [17]: > 90%; inhibition at 0.2 µM [18]: > 90%; inhibition at 0.2 µM [19]: > 90%; inhibition at 0.2 µM [20]: > 90%; inhibition at 0.2 µM [21]: > 90%; inhibition at 0.2 µM [22]: > 90%; LD50 at 7 days ([23]; female mice, read-out: LD50): 41.4 mg/kg; LD50 at 7 days ([23]; male mice, read-out: LD50): 37.7 mg/kg; LD50 at 7 days ([23]; both sexes, males and females together, read-out: average LD50): 39 mg/kg; survival ([23]; female mice, 45 mg/kg, five per group): One female survived out of the five; survival ([23]; female mice, 60 mg/kg, five per group): one; survival ([23]; female mice, doses higher than 60 mg/kg): lethal to all female mice; survival ([23]; female mice, lowest dose (30 mg/Kg)): survived; survival ([23]; male mice, 30 mg/Kg): survived; survival ([23]; male mice, all doses above 30 mg/Kg, within the first 22 hours after dosing): found dead; sedation ([23]; males and females, lowest dose (30 mg/Kg), disappeared within 8-10 hours): very mild/mild sedation; LD50 at 7 days [24]: 78 mg/kg; inhibition of protein kinase C [25]: strongly inhibits; hypersensitivity [26]: attenuates hypersensitivity
